Converted amounts (≈) assume the structure as drawn.
Assays:
Strep. agalactiae SPA1 = assay: MIC against veterinary bacteria in vitro; details: Streptococcus agalactiae, SPA1, 18 h
Description: (§1) The activity of the compounds of the Examples against various veterinarily important bacteria, was assayed in vitro using two-fold serial dilutions in Diagnostic Sensitivity Test Agar inoculated with 10^4 organisms.

E. coli NCTC 10418 = assay: MIC against veterinary bacteria in vitro; details: Escherichia coli, NCTC10418, 18 h
Description: as §1

[1] = system: M. suipneumoniae ATCC 25095; assay: MIC against mycoplasma in vitro; assay type: cell-based; details: Mesomycoplasma hyopneumoniae, ATCC25095, 144 h
[2] = system: M. suipneumoniae NCTC 10110; assay: MIC against mycoplasma in vitro; assay type: cell-based; details: Mesomycoplasma hyopneumoniae, NCTC10110, 144 h; M. suipneumoniae NCTC 10110; 6 days, 37° C.; read-out: MIC
[3] = system: Corynebacterium pyogenes CY1; assay: MIC against veterinary bacteria in vitro; details: CY1, 18 h
Description: as §1

M. bovis NCTC 10131 = assay: microbe, parasite or virus in culture; assay type: cell-based; details: NCTC10131, 144 h
Past. haemolytica PA5 = assay: MIC against veterinary bacteria in vitro; details: Mannheimia haemolytica, PA5, 18 h
Description: as §1

[4] = system: Staph. aureus 152 (pen. sens); assay: MIC against veterinary bacteria in vitro; details: Staphylococcus aureus, 18 h
Description: as §1

Strep. dysgalactiae SPD1 = assay: MIC against veterinary bacteria in vitro; details: Streptococcus dysgalactiae, SPD1, 18 h
Description: as §1

M. hyorhinis ATCC 25021 = assay: MIC against mycoplasma in vitro; assay type: cell-based; details: Mesomycoplasma hyorhinis, ATCC25021, 144 h; M. hyorhinis ATCC 25021; 6 days, 37° C.; read-out: MIC
M. suipneumoniae HK(2) = assay: MIC against mycoplasma in vitro; assay type: cell-based; details: Mesomycoplasma hyopneumoniae, 144 h; M. suipneumoniae HK(2); 6 days, 37° C.; read-out: MIC
M. suipneumoniae TAM 6N = assay: MIC against mycoplasma in vitro; assay type: cell-based; details: Mesomycoplasma hyopneumoniae, TAM6N, 144 h; M. suipneumoniae TAM 6N; 6 days, 37° C.; read-out: MIC
B. subtilis ATCC 6633 = assay: MIC against veterinary bacteria in vitro; details: Bacillus subtilis, ATCC6633, 18 h
Description: as §1

[5] = system: M. suipneumoniae J2206/183^b; assay: MIC against mycoplasma in vitro; assay type: cell-based; details: Mesomycoplasma hyopneumoniae, 144 h; M. suipneumoniae J2206/183^b; 6 days, 37° C.; read-out: MIC
[6] = system: Staph. aureus B4 (pen. resistant); assay: MIC against veterinary bacteria in vitro; details: Staphylococcus aureus, 18 h
Description: as §1

M. gallisepticum S6 = assay: MIC against mycoplasma in vitro; assay type: cell-based; details: Mycoplasmoides gallisepticum, S6, 144 h
M. suipneumoniae LABER = assay: MIC against mycoplasma in vitro; assay type: cell-based; details: Mesomycoplasma hyopneumoniae, 144 h
Past. multocida PA2 = assay: MIC against veterinary bacteria in vitro; details: Pasteurella multocida, PA2, 18 h
Description: as §1

M. suipneumoniae JF 435 = assay: MIC against mycoplasma in vitro; assay type: cell-based; details: Mesomycoplasma hyopneumoniae, JF435, 144 h
S. typhimurium S18 = assay: MIC against veterinary bacteria in vitro; details: Salmonella enterica, TYPHIMURIUM, 18 h
Description: as §1

Staph. aureus Oxford = assay: MIC against veterinary bacteria in vitro; details: Staphylococcus aureus, 18 h
Description: as §1

M. suipneumoniae UCD 1 = assay: MIC against mycoplasma in vitro; assay type: cell-based; details: Mesomycoplasma hyopneumoniae, UCD1, 144 h
[7] = system: M. bovigenitalium ATCC 14173; assay: MIC against mycoplasma in vitro; assay type: cell-based; details: 144 h
Past. multocida PA1 = assay: MIC against veterinary bacteria in vitro; details: Pasteurella multocida, PA1, 18 h
Description: as §1

M. pneumoniae ATCC 15492 = assay: MIC against mycoplasma in vitro; assay type: cell-based; details: Mycoplasmoides pneumoniae, ATCC15492, 144 h; M. pneumoniae ATCC 15492; 6 days, 37° C.; read-out: MIC
[8] = system: M. hyosynoviae ATCC 25591; assay: MIC against mycoplasma in vitro; assay type: cell-based; details: 144 h
M. hyorhinis ATCC 23234 = assay: MIC against mycoplasma in vitro; assay type: cell-based; details: Mesomycoplasma hyorhinis, ATCC23234, 144 h; M. hyorhinis ATCC 23234; 6 days, 37° C.; read-out: MIC
[9] = system: Erysipelothrix rhusiopathiae NCTC 8163; assay: MIC against veterinary bacteria in vitro; details: Erysipelothrix rhusiopathiae, NCTC8163, 18 h
Description: as §1

Strep. uberis SPU1 = assay: MIC against veterinary bacteria in vitro; details: Streptococcus uberis, SPU1, 18 h
Description: as §1

M. suipneumoniae MS 16 = assay: MIC against mycoplasma in vitro; assay type: cell-based; details: Mesomycoplasma hyopneumoniae, MS16, 144 h
[10] = system: Strep. suis (group D) SPS11; assay: MIC against veterinary bacteria in vitro; details: Streptococcus suis, 18 h
Description: as §1

E. coli E1 = assay: MIC against veterinary bacteria in vitro; details: Escherichia coli, E1, 18 h
Description: as §1

M. suipneumoniae Str. 11 = assay: MIC against mycoplasma in vitro; assay type: cell-based; details: Mesomycoplasma hyopneumoniae, STR.11, 144 h
S. dublin S7 = assay: MIC against veterinary bacteria in vitro; details: Salmonella enterica, S7, 18 h
Description: as §1

Bord. bronchiseptica B08 = assay: MIC against veterinary bacteria in vitro; details: Bordetella bronchiseptica, B08, 18 h
Description: as §1

Bord. bronchiseptica B09 = assay: MIC against veterinary bacteria in vitro; details: Bordetella bronchiseptica, B09, 18 h
Description: as §1

M. dispar NCTC 10125 = assay: MIC against mycoplasma in vitro; assay type: cell-based; details: 144 h

Q: C/C(=C\c1ncc(-c2ccc(Br)s2)o1)C[C@@H]1OC[C@H](C[C@@H]2O[C@H]2[C@@H](C)[C@H](C)O)[C@@H](O)[C@H]1O [Example 28, 5-[2-(5-Bromo)-thienyl]-2-(1-normon-2-yl)oxazole A] was tested. Which MIC (Strep. agalactiae SPA1) did it give?
A: The MIC was 1.25 µg/mL (≈ 2.37 µM).

Q: And the MIC (E. coli NCTC 10418)?
A: Its MIC is greater than 80 µg/mL.

Q: And the MIC [1]?
A: Its MIC is 0.25 µg/mL (≈ 0.473 µM).

Q: And the MIC [2]?
A: Its MIC is 0.5 µg/mL (≈ 0.946 µM).

Q: And the MIC [3]?
A: The MIC was greater than 80 µg/mL.

Q: And the MIC (M. bovis NCTC 10131)?
A: Its MIC is 0.05 µg/mL (≈ 0.0946 µM).

Q: And the MIC (Past. haemolytica PA5)?
A: The MIC was 80 µg/mL (≈ 151 µM).

Q: And the MIC [4]?
A: The MIC was 0.312 µg/mL (≈ 0.59 µM).

Q: What about the MIC (Strep. dysgalactiae SPD1) of the same compound?
A: Its MIC is 0.312 µg/mL (≈ 0.59 µM).

Q: What about the MIC (M. hyorhinis ATCC 25021) of the same compound?
A: The MIC was 0.5 µg/mL (≈ 0.946 µM).

Q: What about the MIC (M. suipneumoniae HK(2)) of the same compound?
A: Its MIC is 0.5 µg/mL (≈ 0.946 µM).

Q: And the MIC (M. suipneumoniae TAM 6N)?
A: The MIC was 0.5 µg/mL (≈ 0.946 µM).

Q: And the MIC (B. subtilis ATCC 6633)?
A: Its MIC is 0.07 µg/mL (≈ 0.132 µM).

Q: What about the MIC [5] of the same compound?
A: The MIC was 0.5 µg/mL (≈ 0.946 µM).

Q: What about the MIC [6] of the same compound?
A: The MIC was 0.156 µg/mL (≈ 0.295 µM).

Q: And the MIC (M. gallisepticum S6)?
A: Its MIC is 2.5 µg/mL (≈ 4.73 µM).

Q: And the MIC (M. suipneumoniae LABER)?
A: The MIC was 0.25 µg/mL (≈ 0.473 µM).

Q: And the MIC (Past. multocida PA2)?
A: Its MIC is 2.5 µg/mL (≈ 4.73 µM).

Q: And the MIC (M. suipneumoniae JF 435)?
A: Its MIC is 1 µg/mL (≈ 1.89 µM).

Q: And the MIC (S. typhimurium S18)?
A: The MIC was greater than 80 µg/mL.

Q: What about the MIC (Staph. aureus Oxford) of the same compound?
A: The MIC was 0.625 µg/mL (≈ 1.18 µM).

Q: And the MIC (M. suipneumoniae UCD 1)?
A: Its MIC is 0.25 µg/mL (≈ 0.473 µM).

Q: And the MIC [7]?
A: The MIC was 0.1 µg/mL (≈ 0.189 µM).

Q: What about the MIC (Past. multocida PA1) of the same compound?
A: Its MIC is 20 µg/mL (≈ 37.8 µM).

Q: And the MIC (M. pneumoniae ATCC 15492)?
A: Its MIC is 5 µg/mL (≈ 9.46 µM).

Q: And the MIC [8]?
A: Its MIC is 1 µg/mL (≈ 1.89 µM).

Q: What about the MIC (M. hyorhinis ATCC 23234) of the same compound?
A: The MIC was 0.5 µg/mL (≈ 0.946 µM).

Q: And the MIC [9]?
A: The MIC was 40 µg/mL (≈ 75.7 µM).

Q: And the MIC (Strep. uberis SPU1)?
A: The MIC was less than 0.039 µg/mL.

Q: What about the MIC (M. suipneumoniae MS 16) of the same compound?
A: Its MIC is 0.25 µg/mL (≈ 0.473 µM).

Q: What about the MIC [10] of the same compound?
A: Its MIC is 10 µg/mL (≈ 18.9 µM).

Q: What about the MIC (E. coli E1) of the same compound?
A: Its MIC is greater than 80 µg/mL.

Q: And the MIC (M. suipneumoniae Str. 11)?
A: Its MIC is 0.25 µg/mL (≈ 0.473 µM).

Q: What about the MIC (S. dublin S7) of the same compound?
A: Its MIC is greater than 80 µg/mL.

Q: What about the MIC (Bord. bronchiseptica B08) of the same compound?
A: The MIC was 80 µg/mL (≈ 151 µM).

Q: And the MIC (Bord. bronchiseptica B09)?
A: The MIC was 20 µg/mL (≈ 37.8 µM).

Q: And the MIC (M. dispar NCTC 10125)?
A: The MIC was 0.1 µg/mL (≈ 0.189 µM).
